Each structure is given as a SMILES string.

The test deals with T1, Cathepsin K (Homo sapiens, UniProt P43235).
T1 sequence (P43235 whole entry): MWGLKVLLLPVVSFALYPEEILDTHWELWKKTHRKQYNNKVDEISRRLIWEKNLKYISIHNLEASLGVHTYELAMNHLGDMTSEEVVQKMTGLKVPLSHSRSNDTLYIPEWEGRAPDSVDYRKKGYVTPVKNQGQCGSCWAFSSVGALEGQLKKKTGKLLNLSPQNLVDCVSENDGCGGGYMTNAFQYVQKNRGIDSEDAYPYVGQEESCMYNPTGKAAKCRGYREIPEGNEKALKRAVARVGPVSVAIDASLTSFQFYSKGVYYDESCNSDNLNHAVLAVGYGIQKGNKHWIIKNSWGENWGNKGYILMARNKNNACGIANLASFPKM
The test can be described thus: Inhibition of human cathepsin K.
As for `CCCC[C@H](NC(=O)O[C@H](Cc1nnc(-c2ccc(C(F)(F)F)cc2)o1)C(C)(C)C)C(=O)C(=O)NN1CCOC1=O` [(1R)-2,2-DIMETHYL-1-({5-[4-(TRIFLUOROMETHYL)PHENYL]-1,3,4-OXADIAZOL-2-YL}METHYL)PROPYL (1S)-1-{OXO[(2-OXO-1,3-OXAZOLIDIN-3-YL)AMINO]ACETYL}PENTYLCARBAMATE], the IC50 – broadly, the concentration needed to halve the response being measured – was 0.129 nM. This counts as sub-nanomolar. In the case of `CCCC[C@H](NC(=O)O[C@H](Cc1nnc(-c2ccc(F)cc2)o1)C(C)(C)C)C(=O)C(=O)NCc1cccnc1` [(R)-1-(5-(4-fluorophenyl)-1,3,4-oxadiazol-2-yl)-3,3-dimethylbutan-2-yl(S)-1,2-dioxo-1-(pyridin-3-ylmethylamino)heptan-3-ylcarbamate] it was 2.82 nM; in that of `CCCC[C@H](NC(=O)O[C@H](Cc1nnc(-c2ccccc2)o1)C(C)(C)C)C(=O)C(=O)N[C@H](C)c1ccccc1` [(R)-3,3-dimethyl-1-(5-phenyl-1,3,4-oxadiazol-2-yl)butan-2-yl(S)-1,2-dioxo-1-((R)-1-phenylethylamino)heptan-3-ylcarbamate], 0.24 nM. Compound `CCCC[C@H](NC(=O)O[C@H](CN1CCN(c2ccc(C(F)(F)F)cc2)C1=O)C(C)(C)C)C(=O)C(=O)Nc1ccn[nH]1` [(S)-3,3-dimethyl-1-(2-oxo-3-(4-(trifluoromethyl)phenyl)imidazolidin-1-yl)butan-2-yl(S)-1-(1H-pyrazol-5-ylamino)-1,2-dioxoheptan-3-ylcarbamate] returned a half-inhibitory concentration (IC50) of 0.339 nM.

Compound `CCCC[C@H](NC(=O)O[C@H](Cc1nnc(-c2ccc(F)cc2)o1)C(C)(C)C)C(=O)C(=O)N[C@H](C)c1ccccc1` [[(S)-1-(1-Phenyl-ethylaminooxalyl)-pentyl]-carbamic acid (R)-1-[5-(4-fluoro-phenyl)-[1,3,4]oxadiazol-2-ylmethyl]-2,2-dimethyl-propyl ester] displayed an IC50 of 0.372 nM. In the case of `CCCC[C@H](NC(=O)O[C@H](Cc1nnc(-c2ccc(C(F)(F)F)cc2)o1)C(C)(C)C)C(=O)C(=O)N[C@H](C)c1ccccc1` [[(S)-1-(1-Phenyl-ethylaminooxalyl)-pentyl]-carbamic acid (R)-2,2-dimethyl-1-[5-(4-trifluoromethyl-phenyl)-[1,3,4]oxadiazol-2-ylmethyl]-propyl ester] it was 0.407 nM; in that of `CCCC[C@H](NC(=O)O[C@@H](Cc1nnc(-c2ccccc2)o1)C(C)(C)C)C(=O)C(=O)N[C@H](C)c1ccccc1` [[(S)-1-(1-Phenyl-ethylaminooxalyl)-pentyl]-carbamic acid (S)-2,2-dimethyl-1-(5-phenyl-[1,3,4]oxadiazol-2-ylmethyl)-propyl ester], 457 nM; in that of `CCCC[C@H](NC(=O)O[C@H](Cc1nnc(-c2ccc(C(F)(F)F)cc2)o1)C(C)(C)C)C(=O)C(=O)Nc1ccn[nH]1` [[(S)-1-(2H-Pyrazol-3-ylaminooxalyl)-pentyl]-carbamic acid (R)-2,2-dimethyl-1-[5-(4-trifluoromethyl-phenyl)-[1,3,4]oxadiazol-2-ylmethyl]-propyl ester], 0.0288 nM. In the case of `CCCC[C@H](NC(=O)O[C@H](Cn1cnc(-c2ccc(C(F)(F)F)cc2)c1)C(C)(C)C)C(=O)C(=O)Nc1nccs1` [[(S)-1-(Thiazol-2-ylaminooxalyl)-pentyl]-carbamic acid (S)-2,2-dimethyl-1-[4-(4-trifluoromethyl-phenyl)-imidazol-1-ylmethyl]-propyl ester] it was 5.75 nM.
